Assays:
Assay in all cases: normalised viability (% of control), CellTiter-Blue; higher = more viable cells (about 100 = DMSO control)
Settings in all cases: incubation time: 72 h
[1] = test system: BT-474
Protocol: (§1)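 DSRT, CellTiter-Blue viability, 72 h incubation. Signal is normalised to DMSO and benzethonium chloride controls. Value is the normalised response at dose 3.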

[2] = test system: BT-549
Protocol: as §1

[3] = test system: CAL-120
Protocol: as §1

[4] = test system: CAL-148
Protocol: as §1

[5] = test system: CAL-51
Protocol: as §1

[6] = test system: CAL-85-1
Protocol: as §1

[7] = test system: DU-4475
Protocol: as §1

[8] = test system: HCC1143
Protocol: as §1

[9] = test system: HCC1599
Protocol: as §1

[10] = test system: HCC1937
Protocol: as §1

[11] = test system: HDQ-P1
Protocol: as §1

[12] = test system: Hs578T
Protocol: as §1

[13] = test system: MDA-MB-231
Protocol: as §1

[14] = test system: MDA-MB-436
Protocol: as §1

[15] = test system: MDA-MB-453
Protocol: as §1

[16] = test system: MDA-MB-468
Protocol: as §1

[17] = test system: MFM-223
Protocol: as §1

[18] = test system: SK-BR-3
Protocol: as §1

[19] = test system: BT-474; remark: listed apart in the source
How it was run: (§2)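 Vehicle (100) and a positive kill control (0) anchored the normalisation of each plate, and Z'-factor was used for quality control. Breast cancer cell lines in 20 µl suspension were incubated 72 h over compound in 5 µl medium in 384-well plates, followed by CellTiter-Blue at 560/590 nm. The value is normalised viability at a single listed concentration of the series.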

[20] = test system: BT-549; remark: listed apart in the source
How it was run: as §2

[21] = test system: CAL-148; remark: listed apart in the source
How it was run: as §2

[22] = test system: DU-4475; remark: listed apart in the source
How it was run: as §2

[23] = test system: HCC1143; remark: listed apart in the source
How it was run: as §2

[24] = test system: HCC1937; remark: listed apart in the source
How it was run: as §2

[25] = test system: HDQ-P1; remark: listed apart in the source
How it was run: as §2

[26] = test system: MDA-MB-231; remark: listed apart in the source
How it was run: as §2

[27] = test system: MDA-MB-453; remark: listed apart in the source
How it was run: as §2

[28] = test system: MFM-223; remark: listed apart in the source
How it was run: as §2

[29] = test system: SK-BR-3; remark: listed apart in the source
How it was run: as §2

C[C@]12CC[C@@H]3c4ccc(OC(=O)N(CCCl)CCCl)cc4CC[C@H]3[C@@H]1CC[C@@H]2O [Estramustine]
Settings	normalised viability [%]
[1], 9.9 nM	113
[2], 9.9 nM	79.8
[3], 9.9 nM	102
[4], 0.99 nM	113
[5], 0.99 nM	88.3
[6], 0.99 nM	111
[7], 0.99 nM	85.1
[8], 9.9 nM	105
[9], 9.9 nM	91.4
[10], 9.9 nM	101
[11], 0.99 nM	109
[12], 9.9 nM	102
[13], 9.9 nM	93.8
[14], 9.9 nM	92.1
[15], 0.99 nM	100
[16], 9.9 nM	108
[17], 9.9 nM	95.9
[18], 9.9 nM	106
[19], 0.99 nM	116
[19], 99 nM	115
[19], 990 nM	116
[20], 0.99 nM	82.7
[20], 99 nM	89.6
[20], 990 nM	87.2
[21], 0.297 nM	118
[21], 2.97 nM	101
[21], 9.9 nM	106
[22], 0.297 nM	93.6
[22], 2.97 nM	99.3
[22], 9.9 nM	108
[23], 0.99 nM	109
[23], 99 nM	106
[23], 990 nM	114
[24], 0.99 nM	88.9
[24], 99 nM	75
[24], 990 nM	92.2
[25], 0.297 nM	107
[25], 2.97 nM	106
[25], 9.9 nM	109
[26], 0.99 nM	100
[26], 99 nM	109
[26], 990 nM	119
[27], 0.297 nM	89.2
[27], 2.97 nM	102
[27], 9.9 nM	101
[28], 0.99 nM	101
[28], 99 nM	98.3
[28], 990 nM	103
[29], 0.99 nM	99.1
[29], 99 nM	97.5
[29], 990 nM	101

Cn1cc(C2=Nc3cc(NC(=O)C(N)C4CCCCC4)cc4c3C2=CNNC4=O)cn1 (centres undefined)
Settings	normalised viability [%]
[1], 100 nM	108
[2], 100 nM	100
[3], 100 nM	89.9
[4], 10 nM	93.1
[5], 10 nM	98.2
[6], 10 nM	81.8
[7], 10 nM	108
[8], 100 nM	101
[9], 100 nM	75.9
[10], 100 nM	90.7
[11], 10 nM	98.4
[12], 100 nM	87.3
[13], 100 nM	83.3
[14], 100 nM	93.4
[15], 10 nM	85.9
[16], 100 nM	106
[17], 100 nM	69.2
[18], 100 nM	38.4
[19], 10 nM	103
[19], 1000 nM	104
[19], 10000 nM	98.9
[20], 10 nM	80.9
[20], 1000 nM	37.4
[20], 10000 nM	18.6
[21], 3 nM	88.3
[21], 30 nM	93.5
[21], 100 nM	94
[22], 3 nM	89.6
[22], 30 nM	82.9
[22], 100 nM	86.3
[23], 10 nM	85.5
[23], 1000 nM	57.2
[23], 10000 nM	25.6
[24], 10 nM	98.2
[24], 1000 nM	55.3
[24], 10000 nM	22.7
[25], 3 nM	104
[25], 30 nM	102
[25], 100 nM	106
[26], 10 nM	81.7
[26], 1000 nM	85.6
[26], 10000 nM	34.5
[27], 3 nM	96.7
[27], 30 nM	94.9
[27], 100 nM	72.4
[28], 10 nM	86.1
[28], 1000 nM	57.3
[28], 10000 nM	62.2
[29], 10 nM	81.8
[29], 1000 nM	13.8
[29], 10000 nM	10.8

Cn1cnc2c(F)c(Nc3ccc(Br)cc3Cl)c(C(=O)NOCCO)cc21 [Selumetinib]
Settings	normalised viability [%]
[1], 100 nM	94.5
[2], 100 nM	110
[3], 100 nM	82.8
[4], 10 nM	91.6
[5], 10 nM	113
[6], 10 nM	98.6
[7], 10 nM	93.8
[8], 100 nM	63.9
[9], 100 nM	96.6
[10], 100 nM	97.9
[11], 10 nM	116
[12], 100 nM	68.4
[13], 100 nM	61.5
[14], 100 nM	123
[15], 10 nM	108
[16], 100 nM	92.5
[17], 100 nM	87.6
[18], 100 nM	65.7
[19], 10 nM	104
[19], 1000 nM	105
[19], 10000 nM	104
[20], 10 nM	109
[20], 1000 nM	101
[20], 10000 nM	95.3
[21], 3 nM	91
[21], 30 nM	87.9
[21], 100 nM	88.9
[22], 3 nM	95.1
[22], 30 nM	72.5
[22], 100 nM	43.7
[23], 10 nM	79.7
[23], 1000 nM	58.2
[23], 10000 nM	49.7
[24], 10 nM	65.3
[24], 1000 nM	83.8
[24], 10000 nM	68.6
[25], 3 nM	92.4
[25], 30 nM	107
[25], 100 nM	92.6
[26], 10 nM	90.3
[26], 1000 nM	49.5
[26], 10000 nM	30
[27], 3 nM	122
[27], 30 nM	105
[27], 100 nM	110
[28], 10 nM	86.2
[28], 1000 nM	89.7
[28], 10000 nM	73.1
[29], 10 nM	98.7
[29], 1000 nM	114
[29], 10000 nM	93.6

CC1(C)CNc2cc(NC(=O)c3cccnc3NCc3ccncc3)ccc21 [Motesanib]
Settings	normalised viability [%]
[1], 100 nM	87.7
[2], 100 nM	88.1
[3], 100 nM	71.9
[4], 10 nM	82.5
[5], 10 nM	111
[6], 10 nM	91.4
[7], 10 nM	90.4
[8], 100 nM	79.1
[9], 100 nM	101
[10], 100 nM	90.5
[11], 10 nM	88.1
[12], 100 nM	90.8
[13], 100 nM	79.2
[14], 100 nM	79.7
[15], 10 nM	82.7
[16], 100 nM	113
[17], 100 nM	80.2
[18], 100 nM	79.3
[19], 10 nM	109
[19], 1000 nM	101
[19], 10000 nM	103
[20], 10 nM	79.1
[20], 1000 nM	93.5
[20], 10000 nM	79.2
[21], 3 nM	94.8
[21], 30 nM	83.7
[21], 100 nM	90.7
[22], 3 nM	85.6
[22], 30 nM	79.6
[22], 100 nM	83.9
[23], 10 nM	79.9
[23], 1000 nM	82.4
[23], 10000 nM	70.4
[24], 10 nM	104
[24], 1000 nM	91.5
[24], 10000 nM	88.5
[25], 3 nM	76.7
[25], 30 nM	95.1
[25], 100 nM	86.6
[26], 10 nM	69.8
[26], 1000 nM	77.3
[26], 10000 nM	72.8
[27], 3 nM	96.1
[27], 30 nM	71.3
[27], 100 nM	69.6
[28], 10 nM	80.8
[28], 1000 nM	76.4
[28], 10000 nM	83.2
[29], 10 nM	83.3
[29], 1000 nM	88.9
[29], 10000 nM	78.9

Reference: the supplement of paper PMC4862054
